Experimental findings from patent US20260132129A1 (Genesis Therapeutics, Inc., priority 2022, published 2026) are described below.

Bounds are passed on as bounds.

The term IC50 denotes the concentration at which inhibition is half-maximal.

The target of this assay is T1, PI3Kα H1047R (T47D cells) (Homo sapiens, UniProt P42336, H1047R).
T1 construct: endogenous in cells; host or cells: T47D cells
The assay is described as follows: PI3Kα cellular assay: pAKT HTRF in T47D cells after EGF stimulation. The note with it: for IC50: T47D cells (PI3Kα H1047R), pAKT S473 HTRF, 1 hr compound, 20 ng/ml EGF 10 min. The format is cell-based. The method in brief:
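T47D cells (PIK3CA H1047R) serum-starved 16 h, then treated 1 h at 37 °C with compound (10,000 nM top, 3-fold steps to 0.5 nM). After 10 min stimulation with 20 ng/mL EGF, cells were lysed and pAKT measured by HTRF.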
(Time-resolved FRET reads energy transfer from a long-lived donor to a nearby acceptor.)

T1 sequence (P42336 whole entry H1047R): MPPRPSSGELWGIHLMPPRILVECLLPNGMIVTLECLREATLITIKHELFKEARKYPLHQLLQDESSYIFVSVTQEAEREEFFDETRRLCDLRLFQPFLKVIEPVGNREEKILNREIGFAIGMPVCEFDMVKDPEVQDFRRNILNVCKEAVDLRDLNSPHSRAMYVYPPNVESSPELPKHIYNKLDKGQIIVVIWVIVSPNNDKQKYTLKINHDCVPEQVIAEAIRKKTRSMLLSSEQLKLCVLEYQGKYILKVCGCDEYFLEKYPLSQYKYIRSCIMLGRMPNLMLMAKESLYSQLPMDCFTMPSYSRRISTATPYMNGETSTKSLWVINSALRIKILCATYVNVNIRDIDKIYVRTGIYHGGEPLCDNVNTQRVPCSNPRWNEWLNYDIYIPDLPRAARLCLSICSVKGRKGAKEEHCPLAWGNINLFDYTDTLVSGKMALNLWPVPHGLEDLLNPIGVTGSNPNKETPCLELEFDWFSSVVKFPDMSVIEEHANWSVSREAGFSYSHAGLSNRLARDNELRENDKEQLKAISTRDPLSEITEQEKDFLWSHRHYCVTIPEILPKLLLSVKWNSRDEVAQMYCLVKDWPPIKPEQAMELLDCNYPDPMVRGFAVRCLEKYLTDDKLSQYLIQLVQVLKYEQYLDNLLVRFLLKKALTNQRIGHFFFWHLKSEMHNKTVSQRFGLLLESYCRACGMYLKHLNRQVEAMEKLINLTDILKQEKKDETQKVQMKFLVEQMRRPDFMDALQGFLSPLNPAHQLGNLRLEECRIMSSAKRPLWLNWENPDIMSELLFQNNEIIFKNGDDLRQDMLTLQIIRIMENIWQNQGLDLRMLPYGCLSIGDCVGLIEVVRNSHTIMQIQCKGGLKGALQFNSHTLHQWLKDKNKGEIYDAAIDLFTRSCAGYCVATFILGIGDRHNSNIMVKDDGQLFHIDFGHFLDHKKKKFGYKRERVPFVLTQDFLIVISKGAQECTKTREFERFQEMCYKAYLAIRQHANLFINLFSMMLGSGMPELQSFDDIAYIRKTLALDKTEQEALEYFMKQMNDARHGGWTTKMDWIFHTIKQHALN
T1 sequence (P27986 whole entry partner): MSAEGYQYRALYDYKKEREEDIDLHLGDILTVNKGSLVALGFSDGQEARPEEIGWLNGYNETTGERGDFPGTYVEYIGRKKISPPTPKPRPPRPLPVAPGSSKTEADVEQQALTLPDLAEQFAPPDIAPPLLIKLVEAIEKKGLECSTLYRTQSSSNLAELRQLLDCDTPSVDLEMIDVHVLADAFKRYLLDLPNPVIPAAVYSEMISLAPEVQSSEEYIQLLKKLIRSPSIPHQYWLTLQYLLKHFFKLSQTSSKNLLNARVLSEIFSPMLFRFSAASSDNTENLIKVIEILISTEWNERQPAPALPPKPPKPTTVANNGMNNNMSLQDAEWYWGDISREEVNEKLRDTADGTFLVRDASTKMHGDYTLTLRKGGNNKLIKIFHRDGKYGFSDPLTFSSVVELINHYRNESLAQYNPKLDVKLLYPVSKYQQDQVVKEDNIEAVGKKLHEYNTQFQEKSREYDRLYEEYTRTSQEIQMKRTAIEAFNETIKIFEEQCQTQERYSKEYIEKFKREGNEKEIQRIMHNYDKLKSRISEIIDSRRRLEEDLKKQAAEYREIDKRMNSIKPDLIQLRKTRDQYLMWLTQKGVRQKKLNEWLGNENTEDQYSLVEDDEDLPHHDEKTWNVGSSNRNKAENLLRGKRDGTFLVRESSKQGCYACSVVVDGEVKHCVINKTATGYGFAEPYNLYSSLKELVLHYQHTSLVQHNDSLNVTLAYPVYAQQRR

On to `Cc1cc(C(C)Nc2ccccc2C(=O)O)c2nc(N3CCC4(CC3)CNC4=O)cc(=O)n2c1` (stereo not drawn) [Compound 491], for which the IC50 was above 2 µM and the “T47D pAKT S473 HTRF IC50 (H1047R): T47D (H1047R) selectivity over SKBR3 (WT)” value is “C (C denotes ≤5-fold)”.

As to `Cc1cc(C(C)Nc2ccccc2-c2ccnnc2)c2nc(N3CCOCC3)cc(=O)n2c1` (stereo not drawn) [Compound 494], the IC50 was above 2 µM and the “T47D pAKT S473 HTRF IC50 (H1047R): T47D (H1047R) selectivity over SKBR3 (WT)” value was “C (C denotes ≤5-fold)”.

As for `Cc1cc([C@@H](C)Nc2ccccc2-c2ccnnc2)c2nc(N3CCOCC3)cc(=O)n2c1` [Compound 495], the IC50 is above 2 µM and the “T47D pAKT S473 HTRF IC50 (H1047R): T47D (H1047R) selectivity over SKBR3 (WT)” value is given as “C (C denotes ≤5-fold)”.

Consider `Cc1cc([C@H](C)Nc2ccccc2-c2ccnnc2)c2nc(N3CCOCC3)cc(=O)n2c1` [Compound 496], for which the IC50 was 0.5 to 2 µM and the “T47D pAKT S473 HTRF IC50 (H1047R): T47D (H1047R) selectivity over SKBR3 (WT)” value is “C (C denotes ≤5-fold)”.

In the case of `Cc1cc([C@@H](C)Nc2ccccc2C(=O)O)c2nc(-c3cc(C)c4[nH]c(=O)[nH]c4c3)cc(=O)n2c1` [Compound 497], the concentration for half-maximal inhibition (IC50) is 0.5 to 2 µM and the “T47D pAKT S473 HTRF IC50 (H1047R): T47D (H1047R) selectivity over SKBR3 (WT)” value was “B (B denotes 20-fold≥value>5-fold)”.

On to `Cc1cc([C@H](C)Nc2ccccc2C(=O)O)c2nc(-c3cc(C)c4[nH]c(=O)[nH]c4c3)cc(=O)n2c1` [Compound 498], for which the IC50 was above 2 µM and the “T47D pAKT S473 HTRF IC50 (H1047R): T47D (H1047R) selectivity over SKBR3 (WT)” value was “C (C denotes ≤5-fold)”.

Turning to `Cc1cc([C@@H](C)Nc2ccccc2C(=O)O)c2nc(-c3ccc4[nH]c(=O)[nH]c4c3)cc(=O)n2c1` [Compound 499], the IC50 is 0.1 to 0.5 µM and the “T47D pAKT S473 HTRF IC50 (H1047R): T47D (H1047R) selectivity over SKBR3 (WT)” value is “A (A denotes >20-fold)”.

For the compound `Cc1cc([C@H](C)Nc2ccccc2C(=O)O)c2nc(-c3ccc4[nH]c(=O)[nH]c4c3)cc(=O)n2c1` [Compound 500], the IC50 was above 2 µM and the “T47D pAKT S473 HTRF IC50 (H1047R): T47D (H1047R) selectivity over SKBR3 (WT)” value is reported as “C (C denotes ≤5-fold)”.

`Cc1cc([C@@H](C)Nc2ccccc2C(=O)O)c2nc(-c3ccc(C(=O)NO)cc3)cc(=O)n2c1` [Compound 501]: the IC50 was above 2 µM and the “T47D pAKT S473 HTRF IC50 (H1047R): T47D (H1047R) selectivity over SKBR3 (WT)” value is reported as “C (C denotes ≤5-fold)”.

On to `Cc1cc([C@H](C)Nc2ccccc2C(=O)O)c2nc(-c3ccc(C(=O)NO)cc3)cc(=O)n2c1` [Compound 502], for which the IC50 was above 2 µM and the “T47D pAKT S473 HTRF IC50 (H1047R): T47D (H1047R) selectivity over SKBR3 (WT)” value was “C (C denotes ≤5-fold)”.

As for `CCc1cc(C(=O)NOC)ccc1-c1cc(=O)n2cc(C)cc([C@@H](C)Nc3ccccc3C(=O)O)c2n1` [Compound 503], the IC50 is above 2 µM and the “T47D pAKT S473 HTRF IC50 (H1047R): T47D (H1047R) selectivity over SKBR3 (WT)” value is reported as “C (C denotes ≤5-fold)”.

In the case of `CCc1cc(C(=O)NOC)ccc1-c1cc(=O)n2cc(C)cc([C@H](C)Nc3ccccc3C(=O)O)c2n1` [Compound 504], the IC50 is above 2 µM and the “T47D pAKT S473 HTRF IC50 (H1047R): T47D (H1047R) selectivity over SKBR3 (WT)” value is recorded as “C (C denotes ≤5-fold)”.

As to `Cc1cc(C(C)Nc2ccccc2C(=O)O)c2nc(Nc3ccc4[nH]c(=O)[nH]c4c3)cc(=O)n2c1` (stereo not drawn) [Compound 505], the IC50 is above 2 µM and the “T47D pAKT S473 HTRF IC50 (H1047R): T47D (H1047R) selectivity over SKBR3 (WT)” value is on record as “C (C denotes ≤5-fold)”.

`Cc1cc(C(C)Nc2ccccc2C(=O)O)c2nc(-c3ccc4c(c3)NC(=O)C4)cc(=O)n2c1` (stereo not drawn) [Compound 506]: the IC50 lay within 0.5 to 2 µM and the “T47D pAKT S473 HTRF IC50 (H1047R): T47D (H1047R) selectivity over SKBR3 (WT)” value is on record as “B (B denotes 20-fold≥value>5-fold)”.

Consider `CC(=O)Cc1cc2ccc(-c3cc(=O)n4cc(C)cc(C(C)Nc5ccccc5C(=O)O)c4n3)cn2n1` (stereo not drawn) [Compound 507], for which the IC50 is above 2 µM and the “T47D pAKT S473 HTRF IC50 (H1047R): T47D (H1047R) selectivity over SKBR3 (WT)” value was “C (C denotes ≤5-fold)”.

In the case of `CC(=O)N1CCC(c2cc(=O)n3cc(C)cc(C(C)Nc4ccccc4C(=O)O)c3n2)CC1` (stereo not drawn) [Compound 508], the IC50 is above 2 µM and the “T47D pAKT S473 HTRF IC50 (H1047R): T47D (H1047R) selectivity over SKBR3 (WT)” value is “C (C denotes ≤5-fold)”.

Regarding `Cc1cc(C(C)Nc2ccccc2C(=O)O)c2nc(C3CCN(CC(N)=O)CC3)cc(=O)n2c1` (stereo not drawn) [Compound 509], the IC50 is above 2 µM and the “T47D pAKT S473 HTRF IC50 (H1047R): T47D (H1047R) selectivity over SKBR3 (WT)” value is on record as “C (C denotes ≤5-fold)”.

Take `Cc1cc([C@H](C)Nc2ccccc2C(=O)O)c2nc(C3CCN(CC(N)=O)CC3)cc(=O)n2c1` [Compound 510]: the IC50 was above 2 µM and the “T47D pAKT S473 HTRF IC50 (H1047R): T47D (H1047R) selectivity over SKBR3 (WT)” value is “C (C denotes ≤5-fold)”.

`CC(=O)N1CCCC(c2cc(=O)n3cc(C)cc(C(C)Nc4ccccc4C(=O)O)c3n2)CC1` (stereo not drawn) [Compound 511]: the IC50 is above 2 µM and the “T47D pAKT S473 HTRF IC50 (H1047R): T47D (H1047R) selectivity over SKBR3 (WT)” value is given as “C (C denotes ≤5-fold)”.

Turning to `Cc1cc([C@H](C)Nc2ccccc2C(=O)O)c2nc(N3C[C@H](C)C[C@H](C)C3)cc(=O)n2c1` [Compound 513], the IC50 was above 2 µM and the “T47D pAKT S473 HTRF IC50 (H1047R): T47D (H1047R) selectivity over SKBR3 (WT)” value is “C (C denotes ≤5-fold)”.

Take `Cc1cc(C(C)Nc2ccccc2C(=O)O)c2nc(-c3ccc4[nH]c(=O)[nH]c4c3)cc(=O)n2c1` (stereo not drawn) [Compound 514]: the IC50 lay within 0.5 to 2 µM and the “T47D pAKT S473 HTRF IC50 (H1047R): T47D (H1047R) selectivity over SKBR3 (WT)” value is recorded as “B (B denotes 20-fold≥value>5-fold)”.

On to `Cc1cc(C(C)Nc2ccccc2C(=O)O)c2nc(-c3ccc4[nH]cnc4c3)cc(=O)n2c1` (stereo not drawn) [Compound 515], for which the IC50 lay in the range of 0.5 to 2 µM and the “T47D pAKT S473 HTRF IC50 (H1047R): T47D (H1047R) selectivity over SKBR3 (WT)” value is given as “B (B denotes 20-fold≥value>5-fold)”.

Take `Cc1cc([C@@H](C)Nc2ccccc2C(=O)O)c2nc(-c3ccc4[nH]cnc4c3)cc(=O)n2c1` [Compound 516]: the half-maximal inhibitory concentration (IC50) was in the range of 0.1 to 0.5 µM and the “T47D pAKT S473 HTRF IC50 (H1047R): T47D (H1047R) selectivity over SKBR3 (WT)” value was “A (A denotes >20-fold)”.

Take `Cc1cc([C@H](C)Nc2ccccc2C(=O)O)c2nc(-c3ccc4[nH]cnc4c3)cc(=O)n2c1` [Compound 517]: the half-inhibitory concentration (IC50) was above 2 µM and the “T47D pAKT S473 HTRF IC50 (H1047R): T47D (H1047R) selectivity over SKBR3 (WT)” value is given as “C (C denotes ≤5-fold)”.

With `CC(=O)Oc1nc2ccc(-c3cc(=O)n4cc(C)cc([C@H](C)Nc5ccccc5C(=O)O)c4n3)cn2n1` [Compound 518], the IC50 was above 2 µM and the “T47D pAKT S473 HTRF IC50 (H1047R): T47D (H1047R) selectivity over SKBR3 (WT)” value is “C (C denotes ≤5-fold)”.

Take `Cc1cc(C(C)Nc2ccccc2C(=O)O)c2nc(-c3ccc4nc(NC(=O)C5CC5)nn4c3)cc(=O)n2c1` (stereo not drawn) [Compound 519]: the IC50 is above 2 µM and the “T47D pAKT S473 HTRF IC50 (H1047R): T47D (H1047R) selectivity over SKBR3 (WT)” value is given as “C (C denotes ≤5-fold)”.

Turning to `Cc1cc([C@@H](C)Nc2ccccc2C(=O)O)c2nc(-c3ccc4nc(NC(=O)C5CC5)nn4c3)cc(=O)n2c1` [Compound 520], the IC50 was above 2 µM and the “T47D pAKT S473 HTRF IC50 (H1047R): T47D (H1047R) selectivity over SKBR3 (WT)” value is recorded as “C (C denotes ≤5-fold)”.

As to `Cc1cc([C@H](C)Nc2ccccc2C(=O)O)c2nc(-c3ccc4nc(NC(=O)C5CC5)nn4c3)cc(=O)n2c1` [Compound 521], the IC50 was above 2 µM and the “T47D pAKT S473 HTRF IC50 (H1047R): T47D (H1047R) selectivity over SKBR3 (WT)” value was “C (C denotes ≤5-fold)”.

In the case of `CC(=O)N1CCC(c2cc(=O)n3cc(C)cc([C@@H](C)Nc4ccccc4C(=O)O)c3n2)CC1` [Compound 522], the IC50 is above 2 µM and the “T47D pAKT S473 HTRF IC50 (H1047R): T47D (H1047R) selectivity over SKBR3 (WT)” value was “C (C denotes ≤5-fold)”.

Regarding `CC(=O)N1CCC(c2cc(=O)n3cc(C)cc([C@H](C)Nc4ccccc4C(=O)O)c3n2)CC1` [Compound 523], the IC50 was 0.5 to 2 µM and the “T47D pAKT S473 HTRF IC50 (H1047R): T47D (H1047R) selectivity over SKBR3 (WT)” value is reported as “B (B denotes 20-fold≥value>5-fold)”.
